Values quoted from earlier work, collected in patent US10463679B2, “Compressed capsules for giving birth to males” (priority 2016, dated 2019).

Experiments:
[1] = manufacturer's web site and prescription accompanying Florinef tablet
[2] = sodium and chloride intake per day
mice = conditions: for mice
[3] = one liter administered intravenously; glucose 5% + water, saline 9% sodium chloride + water, albumin

C[C@]12CCC(=O)C=C1CC[C@H]1[C@@H]3CC[C@](O)(C(=O)CO)[C@@]3(C)C[C@H](O)[C@@]12F [Fludrocortisone]
side effects of the drug [1]: skin thinning and fragility

[Cl-].[Na+] [Sodium chloride]
harmful dose [2]: 1000 g per day | lethal dose (mice): 2.5 g/kg per day

Saline
distribution of the solution among the three regions (intracellular, intercellular, blood vessels) [3]: distributed among the three regions but precipitated in the intercellular region
